Laboratory results taken from patent US4294841A, “Derivatives of 1-phenyl 3-(4-piperidyl) 1-propanone usable as drugs” (Pharmindustrie, priority 1978, dated 1981).
Like-named read-outs stand apart in the source and are kept apart here.

Columns and labels:
[1] = acute toxicity in the mouse per os; design: species or system Charles River); conditions: in vivo, po, male CD1 mouse, 3 days of observation
Text: The acute toxicities of the compounds of formula (I) have been determined on the male mouse CD1 (Charles River) per os. The LD50 have been calculated, after 3 days of observation, by the cumulative method of J. J. Reed and H. Muench (Amer. J. Hyg. 27, 493, (1938)).

[2] = test system: uptake of noradrenaline (NA); test: inhibition test of the uptake of noradrenaline by synaptosomes of the rat brain (hypothalamus); assay type: biochemical; conditions: read-out: I50 NA (hypothalamus)
Text: (§1) The results are expressed by a 50% inhibitory dose (I50) which represents the dose of product, in micromoles per liter, diminishing by 50% the uptake of the neuromediator considered in the specific regions (hypothalamus, medulla+pons) where the corresponding neurons predominate.

[3] = target: receptors for benzodiazepines in the brain membranes (3H-diazepam binding site); test: displacement of 3H-diazepam from its binding sites (method of H. Mohler et al.); design: species or system rat
Text: The anxiolytic activity of the benzodiazepines is well known. The presence of specific receptors for benzodiazepines in the brain membranes of the rat has also been well established (Squires et al. Nature 266, 732, (1977)) and a good correlation exists between the degree of affinity of benzodiazepines for the receiving binding sites and the pharmacodynamic effects observed in the animal and in man.
The results of Table II have been obtained by testing the products according to the method of H. Mohler et al., Life Sciences 20, 2101 (1977).

[4] = test system: uptake of serotonin (5-hydroxytryptamine, 5HT); test: inhibition test of the uptake of serotonin by synaptosomes of the rat brain (medulla + pons); assay type: biochemical; conditions: read-out: I50 5HT (medulla + pons)
Text: as §1

[5] = test system: ventricular arhythmias caused by aconitine; test: antiarhythmic activity, aconitine test in rats; assay type: in vivo; conditions: Rattus norvegicus, iv, read-out: ED50 (i.v.)
Experimental: The principle of the technique rests on the induction time of ventricular arhythmias caused by aconitine which is slowly perfused in rats. An antiarhythmic substance retards the occurrence of arhythmias and this delay is proportional to the activity of the molecule.
Groups of five male rats are used. An individual anaesthesia is realized (10% urethane: 1 g/kg/ip) to allow a catheterization of the vein of the penis. The electrocardiogram is recorded. At time T=0 the substance investigated is injected in the form of an aqueous solution, at a rate of 2.5 ml of solution per kg in 30 seconds. At time T=90 seconds, that is 1 minute after the end of the injection, aconitine is perfused at a rate of 20 μg per minute until the appearance of supra-ventricular systoles. The time of perfusion of the aconitine is noted.
The results are expressed by an ED50, which is the dose in mg/kg increasing by 50% the perfusion time of aconitine in comparison with the perfusion time of aconitine for the control animals.

[6] = calculated from I50, read-out: Ki

For `COc1ccc(CCCC2CCNCC2)cc1` [Example 6, 4-[3-(4-Methoxyphenyl) 1-propyl]piperidine], the LD50 at 72 h [1] was 400 mg/kg, the IC50 [2] was 2.2 µM and the Ki [3, 6] was 19.5 µM. For the same molecule, the IC50 [4] was 0.02 µM.

Molecule `Fc1ccc(CCCC2CCNCC2)cc1` [Example 7, 4-[3-(4-Fluorophenyl)1-propyl]piperidine] has an LD50 at 72 h [1] of 225 mg/kg, an IC50 [2] of 3 µM and a Ki [3, 6] of 45 µM. The IC50 [4] was 0.01 µM.

In the case of `Clc1ccc(CCCC2CCNCC2)cc1` [Example 8, 4-[3-(4-Chlorophenyl)1-propyl]piperidine], the LD50 at 72 h [1] is reported as 235 mg/kg, the IC50 [2] is reported as 0.9 µM and the Ki [3, 6] is reported as 36 µM. The IC50 [4] was 0.09 µM.

Work on `Clc1ccc(CCCC2CCNCC2)cc1Cl` [Example 9, 4-[3-(3,4-dichlorophenyl)1-propyl]piperidine] yielded an LD50 at 72 h [1] of 600 mg/kg, an IC50 [2] of 1.3 µM and an IC50 [4] of 0.18 µM.

With `Cc1ccc(CCCC2CCNCC2)cc1` [Example 10, 4-[3-(4-Methylphenyl)1-propyl]piperidine] the LD50 at 72 h [1] was 400 mg/kg, the IC50 [2] was 0.3 µM and the Ki [3, 6] was 42 µM. It also gave an IC50 [4] of 0.16 µM.

In the case of `c1ccc(CCCC2CCNCC2)cc1` [Example 16, 4-[3-(phenyl)propyl]piperidine], the LD50 at 72 h [1] is reported as 200 mg/kg, the IC50 [2] is reported as 0.24 µM and the ED50 [5] is reported as 2.5 mg/kg. The IC50 [4] was 0.002 µM.

Molecule `Nc1ccc(CCCC2CCNCC2)cc1` [Example 17, 4-[3-(4-Aminophenyl)propyl]piperidine] has a Ki [3, 6] of 36 µM.

With `COc1ccc(C(=O)CCC2CCNCC2)cc1` [Example 19, 1-(4-methoxyphenyl) 3-(4-piperidyl) 1-propanone] the LD50 at 72 h [1] was 200 mg/kg and the Ki [3, 6] was 6.5 µM.

For `Oc1ccccc1CCCC1CCNCC1` [Example 20, 2-[3-(4-Piperidyl)propyl]phenol], the ED50 [5] was 1.2 mg/kg and the Ki [3, 6] was 29 µM.

For `COc1ccc(C(O)CCC2CCNCC2)cc1` (stereo not shown) [Example 22, 1-(4-methoxyphenyl) 3-(4-piperidyl) 1-propanol], the LD50 at 72 h [1] was 800 mg/kg and the Ki [3, 6] was 32 µM.

With `CN(C)CCCN1c2ccccc2CCc2ccccc21` [Imipramine, reference compound] the IC50 [2] was 0.5 µM, the Ki ([3]; calculated from I50) was “inactive” and the IC50 [4] was 0.12 µM.

`C=C[C@H]1C[N@@]2CC[C@H]1C[C@@H]2[C@@H](O)c1ccnc2ccc(OC)cc12` [Quinidine, reference compound] showed an ED50 [5] of 4 mg/kg.
